For series [1], the target named is T1, membranes from hERG-transfected HEK cells (hERG channel) (Homo sapiens, UniProt Q12809).
T1 construct: expressed in transfected cells; host or cells: HEK (human embryonic kidney) cells, membrane preparation
The series can be described thus: Binding of the radioligand to membranes from hERG-transfected HEK cells (Kd, Bmax). The conditions noted are these: mean±SEM, n=3. The protocol:
The batch of radiolabel used in these studies has a specific activity of 2941.5 GBq/mmol (79.5 Ci/mmol) and a concentration of 20 μM. The stock radiolabel is diluted 2000-fold to 10 nM and 20 μL added per well to a final assay volume of 200 μL to give a final radioligand concentration of 1 nM.
For orientation: hERG is a cardiac potassium channel; its block is linked to QT prolongation.

In series [2] the target is T2, hERG-transfected HEK membranes (hERG channel) (Homo sapiens, UniProt Q12809). The series can be described thus: biochemical.
T2 sequence (Q12809 whole entry): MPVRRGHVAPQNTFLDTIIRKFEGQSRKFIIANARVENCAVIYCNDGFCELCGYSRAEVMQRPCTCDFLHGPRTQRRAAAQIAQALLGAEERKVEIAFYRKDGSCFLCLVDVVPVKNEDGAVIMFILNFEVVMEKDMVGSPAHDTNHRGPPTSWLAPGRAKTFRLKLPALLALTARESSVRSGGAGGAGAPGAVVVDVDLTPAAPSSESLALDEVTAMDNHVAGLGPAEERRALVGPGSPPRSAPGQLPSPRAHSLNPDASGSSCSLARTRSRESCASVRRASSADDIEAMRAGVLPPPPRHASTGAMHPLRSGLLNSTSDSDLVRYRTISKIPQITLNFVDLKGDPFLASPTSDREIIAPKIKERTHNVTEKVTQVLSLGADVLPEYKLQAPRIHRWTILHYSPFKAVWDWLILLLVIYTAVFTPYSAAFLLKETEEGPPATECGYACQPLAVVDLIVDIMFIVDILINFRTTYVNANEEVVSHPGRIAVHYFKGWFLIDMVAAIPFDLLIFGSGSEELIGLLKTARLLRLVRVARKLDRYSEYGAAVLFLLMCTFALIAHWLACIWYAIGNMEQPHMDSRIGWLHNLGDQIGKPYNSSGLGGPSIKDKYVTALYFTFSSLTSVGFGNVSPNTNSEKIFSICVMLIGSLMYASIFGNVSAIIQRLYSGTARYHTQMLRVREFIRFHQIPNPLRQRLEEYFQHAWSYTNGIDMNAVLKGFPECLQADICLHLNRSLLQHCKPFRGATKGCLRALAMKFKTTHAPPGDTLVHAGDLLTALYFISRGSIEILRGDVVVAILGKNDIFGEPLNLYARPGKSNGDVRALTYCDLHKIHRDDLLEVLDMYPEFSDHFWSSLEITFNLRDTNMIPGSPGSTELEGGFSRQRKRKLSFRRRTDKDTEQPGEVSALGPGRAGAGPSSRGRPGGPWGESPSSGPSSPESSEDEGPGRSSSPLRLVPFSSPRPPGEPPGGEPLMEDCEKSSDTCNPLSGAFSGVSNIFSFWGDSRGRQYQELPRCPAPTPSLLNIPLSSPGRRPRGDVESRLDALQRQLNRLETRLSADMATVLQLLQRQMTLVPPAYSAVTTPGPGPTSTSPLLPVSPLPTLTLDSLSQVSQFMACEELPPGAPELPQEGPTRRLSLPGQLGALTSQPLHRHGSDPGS
Description: Protocol for HERG Binding Assay
(§1) 96-well polypropylene plates (Costar C3600)
GF/B Plate Coating Solution
0.3% (v/v) Polyethylenimine
(§2) GF/B filter plates are pre-soaked in coating solution for a minimum of 20 minutes before harvesting.
(§3) Membranes for use in the assay are prepared as follows:
(§4) The final pellet is prepared in serum-free medium and the packed cell volume (pcv) measured.
(§5) The cells are allowed to swell for a couple of minutes on ice then lysed using a Polytron tissue homogeniser set to 22,000 rpm. The cell suspension is held on ice and the Polytron is allowed to build up to speed, then turned off and allowed to cool for 30 seconds before repeating. Normally 3 bursts should be sufficient to completely lyse the cells. A sample is checked microscopically to ensure complete lysis and the process repeated if necessary.
(§6) The lysed membrane solution is carefully overlaid over the 41% cushion. Any debris that may be stuck to the sides is washed out of the Polytron tube with buffer. The ultra centrifuge tube is topped up with cold buffer to completely fill the tube (this prevents the tube from collapsing during centrifugation). Centrifugation is carried out at 28,000 rpm for 1 hour @ 4° C. using a SW-28 swing-out rotor with a brake to 800 rpm.
(§7) Membranes are seen as a white band at sucrose/buffer interphase. The top layer of the buffer is discarded and then all the membrane band is harvested with as little sucrose as possible and added to a fresh centrifuge tube. This is diluted and mixed well with at least 3 volumes of ice cold buffer containing protease inhibitor. Centrifugation is carried out at 23,000 rpm at 4° C. for 20 minutes with a break to zero.
(§8) The supernatant is discarded and the pellet resuspended in the assay buffer+protease inhibitors on ice at 1×10^8 cell equivalents/ml. This preparation is then aliquotted and frozen to −80° C. or lower. […]
(§9) 20 μL of 10 nM 3,7-Bis[2-(4-nitro[3,5-^3H]phenyl)ethyl]-3,7-diazabicyclo[3.3.1]nonane is added to a dry filter plate to determine the total radioactivity added to assay wells.
The target of series [3] is T2, hERG-transfected HEK membranes (hERG channel).
Description: Protocol for HERG Binding Assay
as §1
GF/B Plate Coating Solution
0.3% (v/v) Polyethylenimine
as §2, §3, §4, §5, §6, §7, §8, §9
Series [4] concerns cardiac rapidly activating delayed rectifier K^+ current. The following applies: source of data: Chadwick 1993; G.Pig; cited from earlier work.
Series [5] has as its target T2, hERG-transfected HEK membranes (hERG channel). The conditions noted are these: published data of Finlayson et al.; cited from earlier work.

Usually Kd stands for the concentration at which binding is half-saturated. The term IC50 denotes the concentration that inhibits the measured activity by half. The low end stands for greater potency, the high end for weaker potency.

T1 sequence (Q12809 whole entry): as above

Compound `O=[N+]([O-])c1ccc(CCN2CC3CC(C2)CN(CCc2ccc([N+](=O)[O-])cc2)C3)cc1` [3,7-Bis[2-(4-nitro[3,5-^3H]phenyl)ethyl]-3,7-diazabicyclo[3.3.1]nonane] registered a Kd in series [1] of 0.91 ± 0.01 nM.
`[3H]c1cc(CCN2CC3CC(C2)CN(CCc2cc([3H])c([N+](=O)[O-])c([3H])c2)C3)cc([3H])c1[N+](=O)[O-]` [3,7-Bis[2-(4-nitro[3,5-^3H]phenyl)ethyl]-3,7-diazabicyclo[3.3.1]nonane] had a Bmax in series [1] of 23.1±0.4 pmol/mg protein.
As to `O=[N+]([O-])c1ccc(CCN2CC3CC(C2)CN(CCc2ccc([N+](=O)[O-])cc2)C3)cc1` [3,7-Bis[2-(4-nitrophenyl)ethyl]-3,7-diazabicyclo[3.3.1]nonane], in series [2], half-maximal inhibition (IC50) required 3.16 nM.
For the compound `CC(C)NC[C@@H](O)c1ccc(NS(C)(=O)=O)cc1` [d-Sotalol], the “pIC50, 3,7-Bis[2-(4-nitro[3,5-^3H]phenyl)ethyl]-3,7-diazabicyclo[3.3.1]nonane competition binding” value in series [3] is 4.6. In addition, the “Electrophysiology pIC50” value in series [4] is reported as 4.1. Besides, in series [5], the “pIC50, [^3H]-Dofetlide competition binding” value is 3.9.
